Experimental data taken from publication PMC9795544, “Identifying Novel Inhibitors for Hepatic Organic Anion Transporting Polypeptides by Machine Learning-Based Virtual Screening” (Journal of Chemical Information and Modeling, 2022).
Where two headings read alike, the source gives them in different places.

Key:
Type in all cases: cell-based
OATP2B1 = molecular target: T1, OATP2B1 (Homo sapiens, UniProt O94956); assay: Pyranine transport inhibition in A431 cells overexpressing OATP2B1
T1 construct: expressed in transfected cells; host or cells: A431 cells
T1 sequence (O94956 1-709): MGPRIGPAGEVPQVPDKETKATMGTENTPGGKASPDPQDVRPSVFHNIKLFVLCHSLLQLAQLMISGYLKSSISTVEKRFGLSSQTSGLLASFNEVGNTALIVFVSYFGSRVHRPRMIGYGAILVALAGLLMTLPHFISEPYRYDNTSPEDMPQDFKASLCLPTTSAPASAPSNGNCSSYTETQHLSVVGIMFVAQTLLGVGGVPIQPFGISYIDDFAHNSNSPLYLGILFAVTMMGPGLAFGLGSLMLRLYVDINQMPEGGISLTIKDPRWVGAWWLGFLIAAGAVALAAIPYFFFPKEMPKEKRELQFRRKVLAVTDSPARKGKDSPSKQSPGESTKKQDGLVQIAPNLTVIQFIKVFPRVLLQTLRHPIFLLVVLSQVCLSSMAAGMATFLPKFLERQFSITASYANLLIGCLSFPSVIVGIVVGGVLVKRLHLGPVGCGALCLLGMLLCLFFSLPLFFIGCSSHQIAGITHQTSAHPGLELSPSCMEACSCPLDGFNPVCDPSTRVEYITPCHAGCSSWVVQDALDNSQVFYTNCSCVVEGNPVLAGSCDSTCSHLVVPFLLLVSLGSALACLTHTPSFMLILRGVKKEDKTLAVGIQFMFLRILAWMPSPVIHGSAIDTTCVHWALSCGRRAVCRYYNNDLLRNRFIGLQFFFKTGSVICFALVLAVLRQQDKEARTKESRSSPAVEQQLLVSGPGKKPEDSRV
Protocol: (§1) A431 cells overexpressing OATP1B1, OATP1B3, or OATP2B1 or their mock transfected controls were generated previously[30] and maintained in Dulbecco’s modified Eagle medium (DMEM, Gibco, Thermofisher Scientific, Waltham, MA, US) supplemented with 10% fetal bovine serum, 2 mM L-glutamine, 100 units/mL penicillin, and 100 μg/mL streptomycin. Expression and function of OATPs in the cell lines were checked regularly.
(§2) Interaction with OATP1B1, OATP1B3, or OATP2B1 was tested in an indirect transport assay using pyranine (8-hydroxypyrene-1,3,6-trisulfonic acid trisodium salt, H1529, Sigma, Merck, Budapest, Hungary) as the test substrate[31],[32] A431 cells overexpressing OATP1B1, OATP1B3, or OATP2B1 or their mock transfected controls were seeded on 96-well plates in a density of 8 × 10^4 cells per well in 200 μL of cell culture medium 1 day prior to the transport measurements. […] The transport reaction was started by the addition of 50 μL of uptake buffer containing pyranine in a final concentration of 10 μM (OATP1B1) or 20 μM (OATP1B3 and OATP2B1), and the cells were further incubated at 37 °C for 15 min (OATP1B1 and OATP2B1) or 30 min (OATP1B3). The reaction was stopped by removing the supernatant. After repeated washing with ice-cold PBS, fluorescence was determined in an Enspire plate reader (PerkinElmer, Waltham, MA) with excitation/emission wavelengths of 460/510 nm. OATP-dependent transport was calculated by extracting fluorescence measured in mock transfected cells and normalized to the fluorescence signal obtained in the absence of the tested compounds (100%). Experiments were repeated in at least three biological replicates.

OATP1B3 = molecular target: T2, OATP1B3 (Homo sapiens, UniProt Q9NPD5); assay: Pyranine transport inhibition in A431 cells overexpressing OATP1B3; conditions: for IC50: read-out: IC50 (μM) OATP1B3
T2 construct: expressed in transfected cells; host or cells: A431 cells
T2 sequence (Q9NPD5 1-702): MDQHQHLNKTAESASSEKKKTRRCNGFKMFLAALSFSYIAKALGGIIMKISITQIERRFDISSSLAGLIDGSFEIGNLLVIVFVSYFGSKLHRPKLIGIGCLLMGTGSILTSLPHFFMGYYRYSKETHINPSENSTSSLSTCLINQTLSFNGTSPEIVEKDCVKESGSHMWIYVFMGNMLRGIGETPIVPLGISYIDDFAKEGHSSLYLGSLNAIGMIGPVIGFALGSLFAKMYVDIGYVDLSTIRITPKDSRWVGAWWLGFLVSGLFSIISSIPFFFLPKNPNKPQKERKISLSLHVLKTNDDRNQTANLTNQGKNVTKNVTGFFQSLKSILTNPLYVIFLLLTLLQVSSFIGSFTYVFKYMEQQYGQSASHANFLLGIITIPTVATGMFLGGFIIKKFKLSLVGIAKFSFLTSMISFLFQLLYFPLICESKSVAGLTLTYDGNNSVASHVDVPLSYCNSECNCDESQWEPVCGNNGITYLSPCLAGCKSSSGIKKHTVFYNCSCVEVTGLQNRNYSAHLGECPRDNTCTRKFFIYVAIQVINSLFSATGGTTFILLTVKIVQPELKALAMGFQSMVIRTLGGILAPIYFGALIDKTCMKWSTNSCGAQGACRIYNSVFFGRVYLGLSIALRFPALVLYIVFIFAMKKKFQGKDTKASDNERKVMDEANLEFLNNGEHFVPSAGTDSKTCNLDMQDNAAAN
Protocol: as §1, §2

OATP1B1 = molecular target: T3, OATP1B1 (Homo sapiens, UniProt Q9Y6L6); assay: Pyranine transport inhibition in A431 cells overexpressing OATP1B1
T3 construct: expressed in transfected cells; host or cells: A431 cells
T3 sequence (Q9Y6L6 1-691): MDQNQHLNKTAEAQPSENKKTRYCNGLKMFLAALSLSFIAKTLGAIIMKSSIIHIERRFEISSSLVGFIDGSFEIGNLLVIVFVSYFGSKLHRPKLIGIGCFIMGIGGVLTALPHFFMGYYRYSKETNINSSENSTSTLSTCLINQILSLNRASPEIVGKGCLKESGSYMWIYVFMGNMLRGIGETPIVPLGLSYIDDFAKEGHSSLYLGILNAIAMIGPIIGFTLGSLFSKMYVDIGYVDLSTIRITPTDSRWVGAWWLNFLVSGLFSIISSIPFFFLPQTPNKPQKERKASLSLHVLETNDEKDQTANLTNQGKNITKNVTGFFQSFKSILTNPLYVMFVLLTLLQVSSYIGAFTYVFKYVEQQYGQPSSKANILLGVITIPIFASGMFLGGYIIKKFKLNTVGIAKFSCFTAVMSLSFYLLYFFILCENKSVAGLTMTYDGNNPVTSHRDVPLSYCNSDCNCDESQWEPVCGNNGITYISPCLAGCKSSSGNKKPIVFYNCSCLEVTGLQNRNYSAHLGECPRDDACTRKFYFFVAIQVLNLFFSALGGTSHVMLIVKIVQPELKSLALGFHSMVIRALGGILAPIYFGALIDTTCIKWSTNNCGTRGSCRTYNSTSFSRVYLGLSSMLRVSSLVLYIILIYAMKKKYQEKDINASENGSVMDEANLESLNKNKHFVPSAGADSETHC
Protocol: as §1, §2

[1] = initial three-point screen (1, 10, 100 μM), category by concentration needed for 50% inhibition, pyranine 20 μM, 15 min, pH 5.5, read-out: IC50 (μM) OATP2B1
[2] = initial three-point screen (1, 10, 100 μM), category by concentration needed for 50% inhibition, pyranine 20 μM, 30 min, pH 5.5
[3] = initial three-point screen (1, 10, 100 μM), category by concentration needed for 50% inhibition, pyranine 10 μM, 15 min, pH 5.5, read-out: IC50 (μM) OATP1B1
[4] = IC50 (μM) OATP2B1, initial three-point screen (1, 10, 100 μM), category by concentration needed for 50% inhibition, pyranine 20 μM, 15 min, pH 5.5
[5] = full dose-response curve, eight concentrations, Hill1 fit, read-out: IC50 (μM) OATP2B1
[6] = full dose-response curve, eight concentrations, Hill1 fit
[7] = full dose-response curve, eight concentrations, Hill1 fit, read-out: IC50 (μM) OATP1B1

Row | IC50 (OATP2B1; [1]) [µM] | IC50 (OATP1B3; [2]) [µM] | IC50 (OATP1B1; [3]) [µM] | IC50 (μM) OATP1B3 (OATP1B3; [2]) | Structure (SMILES) | further results
1 | 1 to 10 | > 10 | 1 to 10 |  | CSCCC(NC(=O)c1ccco1)C(=O)OCc1cc(=O)oc2cc(O)ccc12 (stereo not drawn) [B7, CSCCC(NC(=O)c1occc1)C(=O)OCC2=CC(=O)Oc3cc(O)ccc23] | 
2 | 1 to 10 | > 10 | 1 to 10 |  | CCc1ccccc1NC(=O)CN1CCN(C(=O)c2cc(-c3ccncc3)nc3ccccc23)CC1 [C3, CCc1ccccc1NC(=O)CN2CCN(CC2)C(=O)c3cc(nc4ccccc34)c5ccncc5] | 
3 |  |  |  | no effect | Cc1cccn2cc(COC(=O)c3ccc4c(c3)C(=O)N(Cc3ccco3)C4=O)nc12 [C4, Cc1cccn2cc(COC(=O)c3ccc4C(=O)N(Cc5occc5)C(=O)c4c3)nc12] | IC50 (OATP2B1; [4]): > 10 µM; IC50 (OATP1B1): > 10 µM
4 | > 10 |  | > 10 | no effect | Cc1cccc2nc(CSc3nc4sc5c(c4c(=O)n3Cc3ccccc3)CCCC5)cn12 [C5, Cc1cccc2nc(CSC3=Nc4sc5CCCCc5c4C(=O)N3Cc6ccccc6)cn12] | 
5 | 1 to 10 | 1 to 10 | 1 to 10 |  | CC(C)c1cc(C(=O)N2CCC(n3c(=O)[nH]c4ccccc43)CC2)c2cnn(C(C)C)c2n1 [C6, CC(C)c1cc(C(=O)N2CCC(CC2)N3C(=O)Nc4ccccc34)c5cnn(C(C)C)c5n1] | 
6 | < 1 | 1 to 10 |  |  | O=C(O)c1cc(/C=C/c2c(-c3ccccc3)nc3ccccn23)nc2ccccc12 [C7, OC(=O)c1cc(\C=C\c2c(nc3ccccn23)c4ccccc4)nc5ccccc15] | IC50 (OATP2B1; [5]): 0.04 µM; IC50 (OATP1B3; [6]): 5.4 µM; fold lower affinity on OATP1B3 than on OATP2B1 (OATP1B3; ratio of IC50 OATP1B3 / OATP2B1): 135 fold; IC50 (OATP1B1): > 10 µM
7 | > 10 | > 10 | > 10 |  | O=C1NC2(CCCc3sccc32)C(=O)N1CC(=O)N1c2ccccc2OCC1c1ccccc1 (stereo not drawn) [D2, O=C(CN1C(=O)NC2(CCCc3sccc23)C1=O)N4C(COc5ccccc45)c6ccccc6] | 
8 | > 10 |  |  | no effect | O=C(CCN1C(=O)NC2(CCCC2)C1=O)Nc1nc(-c2ccc3c(c2)CCC3)cs1 [D3, O=C(CCN1C(=O)NC2(CCCC2)C1=O)Nc3nc(cs3)c4ccc5CCCc5c4] | IC50 (μM) OATP1B1 (OATP1B1; initial three-point screen (1, 10, 100 μM), category by concentration needed for 50% inhibition, pyranine 10 μM, 15 min, pH 5.5): no effect
9 |  | 1 to 10 | 1 to 10 |  | Cn1c(=O)[nH]c(=O)c2c1nc(N/N=C1/C(=O)Nc3ccccc31)n2CCCc1ccccc1 [E3, CN1C(=O)NC(=O)c2c1nc(N\N=C/3\C(=O)Nc4ccccc34)n2CCCc5ccccc5] | IC50 (OATP2B1; [5]): 1.32 µM; IC50 (OATP1B3; [6]): 1.53 µM; IC50 (OATP1B1; [7]): 2.69 µM
10 |  |  | 1 to 10 |  | O=C(NCc1cn(Cc2ccccc2)nc1-c1ccccc1)c1cc(F)cc(F)c1 [E5, Fc1cc(F)cc(c1)C(=O)NCc2cn(Cc3ccccc3)nc2c4ccccc4] | IC50 (OATP2B1; [5]): 1.48 µM; IC50 (OATP1B3; [6]): 7.5 µM; IC50 (OATP1B1; [7]): 7.61 µM
11 | 1 to 10 | > 10 | > 10 |  | CCn1cnc2c1c(=O)n(CC(=O)NC1CCCC(C)C1C)c(=O)n2Cc1ccccc1 (stereo not drawn) [E6, CCn1cnc2N(Cc3ccccc3)C(=O)N(CC(=O)NC4CCCC(C)C4C)C(=O)c12] | 
12 | > 10 | > 10 | > 10 |  | O=C(Nc1ccccc1)N1CCCC(C(=O)N2CCN(Cc3nc4ccccc4s3)CC2)C1 (stereo not drawn) [F3, O=C(Nc1ccccc1)N2CCCC(C2)C(=O)N3CCN(Cc4nc5ccccc5s4)CC3] | 

Row | Structure (SMILES) | IC50 (OATP2B1; [1]) [µM] | IC50 (OATP1B3; [2]) [µM] | IC50 (OATP1B1; [3]) [µM] | IC50 (μM) OATP1B3 (OATP1B3; [2]) | further results
13 | O=C(COc1ccc([N+](=O)[O-])cc1)Nc1c(C(=O)N2CCOCC2)oc2ccccc12 [D7, [O-][N+](=O)c1ccc(OCC(=O)Nc2c(oc3ccccc23)C(=O)N4CCOCC4)cc1] |  |  |  | no effect | IC50 (OATP2B1; [4]): > 10 µM; IC50 (OATP1B1): > 10 µM
14 | COc1ccc(C2(c3ccc(OC)cc3)NC(=O)N(CC(=O)c3ccc4c(c3)OCO4)C2=O)cc1 [E2, COc1ccc(cc1)C2(NC(=O)N(CC(=O)c3ccc4OCOc4c3)C2=O)c5ccc(OC)cc5] | 1 to 10 | 1 to 10 | > 10 |  | 
15 | Cc1ccc(OCc2nnc(SCC(=O)N3CCN(C(=O)Nc4ccccc4)CC3)o2)cc1 [F4, Cc1ccc(OCc2oc(SCC(=O)N3CCN(CC3)C(=O)Nc4ccccc4)nn2)cc1] |  |  |  | Activated | IC50 (OATP2B1; [4]): > 10 µM; IC50 (OATP1B1): > 10 µM
